Patent publication US10898592B2, “Compositions and methods for reducing the risk of post-imaging pancreatitis” (University Of Pittsburgh—Of The Commonwealth System Of …, priority 2015, dated 2021)
Entries after “also recorded” stand apart in the source; their conditions may differ. Blank lines part the entries; values can stand above or below the compound they belong to.

Experiments:
[1] = system: calcineurin (NFAT-luciferase); assay: NFAT-luciferase activity assay, AR42J cells; assay type: cell-based; conditions: for effect on RC (6%)-induced NFAT-luciferase activity: pretreatment, FK506 24 μM, CsA 16 μM, U73122 5 μM, 2-APB 100 μM, BAPTA 64 μM
Experimental: (§1) NFAT-luciferase activity assay. Acinar cells were infected with Ad-NFAT-luciferase following a previously described procedure^10,15,16. The construct includes a luciferase gene placed downstream of an IL-4 promoter which contains nine tandem NFAT binding sites^10. Acinar cells were incubated with the NFAT-driven luciferase adenovirus for 1.5 hr prior to stimulation. All of the stated inhibitors were added for 30 min prior to stimulation with RC. NFAT-luciferase was measured using the luciferase assay system. Briefly, cells were spun at 1,000 rpm for 5 min, washed with PBS, and lysed using reporter lysis 5× buffer (Promega #E397A, Madison, Wis.). Samples were vortexed and spun at 12,000 g for 2 min. Supernatant was plated, and luminescence was measured using a Synergy H1 plate reader (BioTek, Winooski, Vt.) and normalized to total protein.

primary acinar cells = assay: Cell necrosis assay (propidium iodide uptake), primary acinar cells; assay type: cell-based, mouse; conditions: for effect on RC (12%)-induced acinar cell injury (PI uptake): 6 hr incubation, U73122 5 μM, 2-APB 100 μM, BAPTA 64 μM, IKK-2 20 μM, FK506 24 μM, CsA 16 μM
Experimental: Cell necrosis assay. Acinar cells were incubated in a 48-well plate with 50 μg/ml of propidium iodide (PI) for 30 min prior to addition of RC. Fluorescence was measured at 536 nm excitation and 617 nm emission wavelengths over time a time course of up to 6 hr. Fluorescence was measured after cell lysis with 0.5% Triton-X 100 was used to normalize the results relative to total DNA.

AR42J cells = assay: Ca^2+ signals (Fluo-4AM) in AR42J cells; assay type: cell-based; conditions: U73122 5 μM; 2-APB 100 μM
NF-κB = assay: NF-κB-luciferase activity assay, AR42J cells; assay type: cell-based; conditions: for effect on RC-induced NF-κB-luciferase levels: U73122 5 μM, 2-APB 100 μM, BAPTA 64 μM
Experimental: NF-κB-luciferase activity assay. AR42J cells were differentiated towards an acinar phenotype by administering dexamethasone (100 nM) for 48-72 hr^17. AR42J cells were infected with Ad-NF-κB luciferase 16 h prior to stimulation using a previously described method^12. Following a wash with DMEM/F12 medium, acinar cells were evenly distributed in a 48-well plate and incubated for 30 min at 37° C. They were incubated with RC at varying concentrations and times. NF-κB-luciferase was measured using a commercially available luciferase assay (Promega, Madison, Wis.). Briefly, cells were spun at 1,000 rpm for 5 min, washed with PBS, and lysed using reporter lysis 5× buffer (Promega, catalog no. E397A). Samples were vortexed and spun at 12,000×g for 2 min. The supernatant was plated, and luminescence was measured using a Synergy H1 plate reader (BioTek, Winooski, Vt.) and normalized to total […].

[2] = system: calcineurin (NFAT-luciferase); assay: NFAT-luciferase activity assay (calcineurin activation), mouse primary acinar cells; assay type: cell-based; conditions: 2-APB 100 μM, 30 min pre-treatment; RC 9%
Experimental: as §1

pancreatic acinar cells = assay: ATP level measurements in pancreatic acinar cells; assay type: cell-based, mouse; conditions: RC, concentration dependent
Experimental: ATP level measurements. Following isolation, pancreatic acinar cells were cultured in DMEM/F12 Medium (0.5 ml/well of a 48-well plate) at 37° C. water bath and treated with RC±FK506. Cells were collected at indicated time points and lysed in 100 μl lysis buffer (100 mM Tris pH 7.75, 4 mM EDTA). ATP levels were measured from 20 μl aliquots of acinar cell lysates using the ENLITEN luciferase/luciferin reagent (Promega catalog no. FF2021).

pancreatic NF-κB = assay: Imaging pancreatic NF-κB bioluminescence in vivo (AAV6-NF-κB-luciferase); set-up: species or system mouse; conditions: RC-infused mice, 4 hr after surgery
Experimental: Imaging pancreatic NF-κB bioluminescence in vivo. An AAV6-NF-κB-luciferase reporter was constructed, expanded in HEK293 cells, and purified as previously described^18-20,39. A volume of 100 μl of virus (10^12 GCP/ml) was infused into the pancreaticobiliary duct at a rate of 10 μl/min using the same technique of RC infusion described above and recently published^21,39. After a 5-week recovery from the surgery, mice underwent PEP induction with or without FK506 treatment. At varying time points after the surgery, ranging from 2 to 36 hr, bioluminescence signals were obtained by first giving a subcutaneous injection of luciferin (150 μg/g body weight) in the scruff of the neck 15 min before the start of imaging. The mice were briefly anesthetized with isoflurane and placed in the supine position in a bioluminescent imaging chamber (IVIS spectrum imager; Perkin Elmer, Waltham, Mass.) for 3-10 min. Average pixel intensity was measured from a pancreatic region of interest (in the upper abdomen). Raw time points from each mouse were normalized to its individual baseline intensity at time zero.

[3] = system: mouse pancreatic acinar cells; assay: Ca^2+ signals (Fluo-4AM) in mouse pancreatic acinar cells; assay type: cell-based; conditions: RC 25% and 33%
Experimental: Detection and analysis of cellular Ca^2+ signals from mouse and human acini. Acinar cells were loaded at room temperature with the high-affinity Ca^2+-sensing dye Fluo-4AM (Kd=300 nM; Invitrogen). Acinar cells were plated on acid-washed glass coverslips and then mounted on a perifusion chamber. Thereupon, they were stimulated at room temperature with varying concentrations of RC (17-50%) diluted in HEPES buffer. Carbachol (1 mM) was given at the end of each experiment to confirm that the cells were intact and could mobilize intracellular Ca^2+ stores. A Zeiss LSM710 laser scanning confocal microscope was used with a 20×, 1.4 numerical aperture objective. The dye was excited at 488 nm wavelength, and emission signals of >515 nm were collected every 2 sec. Fluorescence from individual acinar cells was recorded. Analysis of recordings was performed using ImageJ software (NIH, Bethesda, Md.), and mean fluorescence over time in each region was graphed.
Preparation of mouse pancreatic acini for Ca^2+ imaging. Groups of pancreatic acinar cells were isolated as previously described^26,69, with minor modifications. […]

pancreas = assay: Intra-ductal RC infusion (PEP model) in mice: histological severity, serum amylase; assay type: in vivo, mouse
Text: Intra-ductal RC infusion in mice. The procedure for retrograde infusion into the CBD and pancreatic duct has been described before^14. Briefly, Swiss Webster mice were anesthetized with isoflurane. A midline incision was made to reveal the abdominal cavity. The duodenum was flipped to reveal its distal side and held in place by ligatures. […] needle was inserted through the anti-mesenteric aspect of the duodenum to cannulate the CBD. A small bull dog clamp was applied to the distal CBD (near the duodenum) to prevent back flow of the infusate into the duodenal lumen and to hold the cannula in place. A larger bull dog clamp was applied to the proximal CBD (near the liver) to prevent infusion into the liver and thus to direct flow to the pancreatic duct. Total volumes of 50-100 μl of iohexol, iopamidol, or normal saline (NS) were infused at 10-20 μl per min for 5 min using a P33 perfusion pump (Harvard Apparatus, Holliston, Mass.). Upon completion of the infusion, the bull dog clamps were released. The exterior abdominal wound was closed using 7 mm wound clips, and a single injection of buprenorphine (0.075 mg/kg) was given immediately after the surgery. Mice recovered on a heating pad for 30 min after the procedure. They were given free access to food and water after the surgery. Pancreas tissue preparation, histological grading, and serum amylase. The pancreas, duodenum, and spleen were fixed at room temperature for 24 hr in 4% paraformaldehyde. Paraffin-embedded sections were stained with hematoxylin an eosin (HE) and graded using a 20× objective over 10 separate fields in a blinded fashion. Pancreas tissue was graded for edema, inflammatory infiltrate, and necrosis as described by Wildi et al.^67. Whole blood samples were centrifuged at 1500×g for 5 min at 4° C. Serum amylase was measured using a Phadebas kit (Amersham Pharmacia, Rochester N.Y.) as previously described^68.

[4] = system: IL-6, GADD45B, IL-1β gene expression; assay: Real-time PCR of pancreatic head (IL-6, GADD45B, IL-1β); assay type: in vivo, mouse; conditions: RC exposure
Experimental: RNA extraction from whole pancreas and real-time PCR. Total RNA from the pancreatic head was obtained by homogenizing 40 mg of tissue in 2 ml of TRIzol reagent (Life Technologies; Grand Island N.Y.) at 4° C. and immediately flash frozen in liquid nitrogen. Samples were thawed on ice and centrifuged at 12,000×g for 10 min at 4° C. The supernatant was diluted with 200 μl of chloroform and centrifuged at 12,000×g for 15 min at 4° C. The upper aqueous phase was treated with 0.5 ml of isopropanol and centrifuged at 10,000×g for 10 min at 4° C. The pellet was resuspended with 150 μl of 75% ethanol and centrifuged at 7500×g for 5 min at 4° C. The pellet was air-dried and dissolved in 100 μl of nuclease-free water. Total RNA samples were used to generate cDNA using the iScript Advanced cDNA synthesis Kit (Bio Rad; Hercules, Calif.).
Quantitative real-time PCR (rtPCR) was performed to determine the relative expression of the cytokines IL-6 and IL-1β as well as the cell growth arrest and DNA-damage inducible gene GADD45B. The primer pairs for each as well as a GAPDH control were obtained as part of the PrimePCR-PreAMP SYBR Green Assay (Bio Rad; unique assay ID #qMmuCEP0054186, qMmuCID0005641, qMmuCEP0039581). rtPCR reactions were carried out in 20 μl volume reactions using the SsoAdvanced Universal Supermix SYBR Green system (Bio Rad). The reactions contained 1× SsoAdvanced Universal SYBR Green Supermix, 300 nM forward Primer, 300 nM reverse primer and 100 ng cDNA. rtPCR conditions were 95° C. for 10 sec and 60° C. for 30 sec for 35 cycles on a Bio Rad CFX96 Touch thermocycler (Bio Rad). Results for the expression of mRNA were normalized to expression of 18S rRNA and are represented relative to expression levels for each of the control groups.

[5] = high-affinity Ca^2+-sensing dye (Invitrogen); cited from earlier work
NRK-52E renal cell line = conditions: long incubation (4 hr); cited from earlier work

SMILES: COc1ccc2c(c1)CC[C@@H]1[C@@H]2CC[C@]2(C)[C@@H](NCCCCCCN3C(=O)C=CC3=O)CC[C@@H]12 [U73122]
effect on RC (6%)-induced NFAT-luciferase activity [1]: prevented | effect on RC (12%)-induced acinar cell injury (PI uptake) (primary acinar cells): prevented | effect on RC (25%)-induced Ca^2+ signals (AR42J cells): prevented | effect on RC-induced NF-κB-luciferase levels (NF-κB): reduced

SMILES: NCCOB(c1ccccc1)c1ccccc1 [2-APB]
reduction of RC-induced NFAT-luciferase rise [2]: 47% | effect on RC (6%)-induced NFAT-luciferase activity [1]: prevented | effect on RC (12%)-induced acinar cell injury (PI uptake) (primary acinar cells): prevented | effect on RC (25%)-induced Ca^2+ signals (AR42J cells): prevented | effect on RC-induced NF-κB-luciferase levels (NF-κB): reduced

ATP levels (pancreatic acinar cells): depletion of ATP levels | peak in pancreatic NF-κB luciferase compared to NS sham (pancreatic NF-κB): 13 fold | severity of pancreatitis at pH 6 compared to pH 7 (pancreas; RC buffered with 10 mM HEPES, pH clamped at 6): no increased severity of pancreatitis | increase in histological severity above the intra-ductal NS sham control (pancreas; intraductal RC at doubled rate and volume, pancreatic head 24 hr after procedure): 59% | serum amylase increase (pancreas; intraductal RC, 6 hr post-procedure): at least 50% | expression of GADD45B [4]: upregulated | expression of IL-1β [4]: upregulated | expression of IL-6 [4]: upregulated
SMILES: CC(=O)N(CC(O)CO)c1c(I)c(C(=O)NCC(O)CO)c(I)c(C(=O)NCC(O)CO)c1I (centres unmarked) [RC, iohexol]
propidium iodide (PI) uptake (primary acinar cells; RC exposure for 6 hr): concentration-dependent increase | amplitude of Ca^2+ signal above baseline [3]: 400%

SMILES: C[C@H](O)C(=O)Nc1c(I)c(C(=O)NC(CO)CO)c(I)c(C(=O)NC(CO)CO)c1I [iopamidol]
calcineurin/NFAT activation on exposure to radiocontrast ([1]; AR42J cells): induced NFAT activation in a concentration-dependent manner | induction of pancreatitis by intraductal infusion (histological severity, serum amylase, serum IL-6) (pancreas; iopamidol (Isovue 300) compared with iohexol, 24 hr): similar; also recorded: induces pancreatitis | NF-κB-luciferase on exposure to radiocontrast (NF-κB; AR42J cells, 6 hr): induced NF-κB activation in a concentration-dependent manner

SMILES: CCCCCCCCCCC[C@@H](C[C@@H]1OC(=O)[C@H]1CCCCCC)OC(=O)[C@H](CC(C)C)NC=O [Orlistat]
effect on activation of NF-κB with RC (NF-κB; Orlistat pretreatment (50-100 μM), RC 16%): did not significantly reduce

SMILES: OC[C@@H](O)[C@@H](O)[C@H](O)[C@H](O)CO [mannitol]
NF-κB activation under hyperosmolar control (NF-κB; mannitol at concentrations equimolar to RC): failed to cause an increase

SMILES: CC(=O)OCOC(=O)CN(CC(=O)OCOC(C)=O)c1ccc(C)cc1OCCOc1cc(-c2c3cc(F)c(=O)cc-3oc3cc(OCOC(C)=O)c(F)cc23)ccc1N(CC(=O)OCOC(C)=O)CC(=O)OCOC(C)=O [Fluo-4AM]
Kd [5]: 300 nM

SMILES: O=C(NCC(O)CO)c1c(I)c(C(=O)NCC(O)CO)c(I)c(N(CCO)C(=O)CO)c1I (centres unmarked) [ioversol]
baseline cytosolic Ca^2+ levels (NRK-52E renal cell line): caused a slow, globalized increase in baseline cytosolic Ca^2+ levels
